#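 Cultured in 96-well plates, cells were exposed to test compound for 48 hours across five concentrations. At the GI50, growth is halved. At the TGI there is no net growth.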
# Columns and labels:
# Experiment in all cases: NCI-60 cell line screen, 48 h
# NCI-H23 lung = system: NCI-H23 lung
# IGROV1 ovarian = system: IGROV1 ovarian
# NCI-H522 lung = system: NCI-H522 lung
# HT29 colon = system: HT29 colon
# COLO 205 colon = system: COLO 205 colon
# U251 CNS = system: U251 CNS
# MCF7 breast = system: MCF7 breast
# UACC-257 melanoma = system: UACC-257 melanoma
# SNB-19 CNS = system: SNB-19 CNS
# NCI-H460 lung = system: NCI-H460 lung
SMILES,TGI (NCI-H23 lung) [µM],TGI (IGROV1 ovarian) [µM],TGI (NCI-H522 lung) [µM],TGI (HT29 colon) [µM],TGI (COLO 205 colon) [µM],TGI (U251 CNS) [µM],TGI (MCF7 breast) [µM],TGI (UACC-257 melanoma) [µM],TGI (SNB-19 CNS) [µM],TGI (NCI-H460 lung) [µM],GI50 (NCI-H23 lung) [µM],GI50 (IGROV1 ovarian) [µM],GI50 (NCI-H522 lung) [µM],GI50 (HT29 colon) [µM],GI50 (COLO 205 colon) [µM],GI50 (U251 CNS) [µM],GI50 (MCF7 breast) [µM],GI50 (UACC-257 melanoma) [µM],GI50 (SNB-19 CNS) [µM],GI50 (NCI-H460 lung) [µM]
CS(=O)(=O)CS(=O)(=O)OCCCl,494,911,723,1320,831,664,1420,808,969,448,–,–,–,–,–,–,–,–,–,–
Cn1c(=S)c2[nH]c(SCCCc3ccccc3)nc2n(C)c1=O,> 100,> 100,> 100,> 100,25.4,> 100,> 100,44.8,53.6,42.1,–,–,–,–,–,–,–,–,–,–
COc1ccc(-c2cc(Nc3ccnc(N4CCOCC4)n3)on2)cc1,29.1,16.9,3.12,11.5,1.53,12.7,12.3,11.4,17.6,10.4,0.516,0.245,0.0815,0.243,0.239,0.329,0.258,1.48,0.428,0.24
CNC(C)[C@H]1CCC2C3CC=C4C(=O)[C@@H](NC(=O)C=C(C)C)CC[C@]4(C)C3CC[C@@]21C (stereo not given in full),12.2,11.8,7.55,1.59,2.99,11.8,5.98,5.54,17.4,2.76,2.37,3.19,2.27,0.358,1.51,2.19,1.7,2.33,5.26,1.26
O=C(NNc1cnccn1)c1nc2cc(F)ccc2n2cccc12,> 100,> 100,0.963,> 100,> 100,> 100,> 100,> 100,> 100,> 100,0.765,0.503,0.281,0.649,0.331,0.363,0.336,0.515,0.7,0.403
C=C1C(O)C2C(=C(C)C13CC3)C(=O)C(C)(C)C2OC (stereo not given),> 100,> 100,> 100,> 100,> 100,> 100,> 100,> 100,> 100,> 100,> 100,> 100,75.4,> 100,95.6,> 100,69.4,44.4,> 100,> 100
O=C(N/N=C/c1ccc(O)cc1O)c1cccnc1,> 100,23.6,> 100,> 100,> 100,41.5,7.5,22.5,> 100,> 100,5.92,0.776,3.21,7.52,2.8,2.42,1.94,3.33,5.8,1.18
O=[N+]([O-])c1ccc(Sc2c3ccccc3nc3ccccc23)cn1,> 47.8,> 64.7,10.8,28,10.4,> 60.1,19.1,31.8,> 66.6,> 100,–,–,–,–,–,–,–,–,–,–
CC(=O)NC1CONC1=O (stereo not given),> 100,> 100,> 100,> 100,> 100,> 100,> 100,> 100,> 100,> 100,–,–,–,–,–,–,–,–,–,–
C=C(C)[C@@H]1CC[C@]2(C)[C@H](CC[C@@H]3[C@@H]([C@@](C)(O)CCC=C(C)C)CC[C@]32C)[C@@]1(C)CCC(=O)O,35.6,38.4,63.5,> 100,35.6,31.8,49.3,96.4,34.9,> 100,18.1,18.7,20.3,24.1,17.7,16.6,19.7,23.8,18.8,31.9
Cc1cc(NCCCCNc2ccnc3cc(Cl)ccc23)nc(Nc2ccc(C(=O)N3CCCCC3)cc2)n1,5.73,6.22,4.22,4.62,3.51,3.56,4.34,3.42,13.3,3.78,2.27,2.27,1.86,1.78,1.76,1.78,1.48,1.89,3.25,1.78
COc1cc(/C=C/C(=O)Oc2ccccc2)ccc1C(=O)O/C=C/c1ccccc1,> 100,> 100,> 100,> 100,> 100,> 100,> 100,> 100,> 100,> 100,–,–,–,–,–,–,–,–,–,–
CCOC(=O)C1=C(N)Oc2c(sc3c(C)cccc23)C1c1ccc(F)cc1 (stereo not given),14.3,13.5,3.29,12.8,5.77,17,11.4,27.7,16.3,11,0.808,0.475,0.35,0.938,0.633,0.58,0.47,12.6,0.621,0.415
NC(N)=N/N=C(\N=Nc1ccccc1)c1ccc(Cl)cc1,30,23,13.8,5.39,5.36,7.55,14.2,6.37,35.5,16.5,14.4,7.32,3.35,2.29,2.46,2.39,2.43,2.42,12,3.13

# From PubChem BioAssay (NCI)
